# Results reported in ChEMBL document CHEMBL1201862, “PubChem BioAssay data set” (2004).
#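 Grown in 96-well plates, cells were treated for 48 hours with each compound at five concentrations. Insufficient inhibition: endpoint recorded as highest concentration tested. At the GI50, growth is halved.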 The source made the active and inactive calls. No stated cut-off is given here; in the data, active = GI50 up to about 1.1 µM and inactive = higher.
# Tests used:
# Test in all cases: inhibition of tumour cell growth, NCI panel, 48 h
# UACC-62 = system: UACC-62
# HT-29 = system: HT-29
# NCI-H226 = system: NCI-H226
# NCI-H460 = system: NCI-H460
# LOX IMVI = system: LOX IMVI
# MDA-N = system: MDA-N
# KM12 = system: KM12
# U-251 = system: U-251
# OVCAR-3 = system: OVCAR-3
# NCI-H522 = system: NCI-H522
# MDA-MB-435 = system: MDA-MB-435
# DU-145 = system: DU-145
# SNB-75 = system: SNB-75
# K562 = system: K562
# RXF 393 = system: RXF 393
# M14 = system: M14
# PC-3 = system: PC-3
# MCF7 = system: MCF7
# T47D = system: T47D
# SNB-19 = system: SNB-19
# CCRF-CEM = system: CCRF-CEM
# 786-0 = system: 786-0
# SF-268 = system: SF-268
# A549 = system: A549
# MDA-MB-231 = system: MDA-MB-231
# NCI/ADR-RES = system: NCI/ADR-RES
# Malme-3M = system: Malme-3M
# OVCAR-5 = system: OVCAR-5
# CAKI-1 = system: CAKI-1
# IGROV-1 = system: IGROV-1
# MOLT-4 = system: MOLT-4
# COLO 205 = system: COLO 205
# OVCAR-8 = system: OVCAR-8
# RPMI-8226 = system: RPMI-8226
# SN12C = system: SN12C
# HOP-62 = system: HOP-62
# EKVX = system: EKVX
# HCT-116 = system: HCT-116
# SK-MEL-28 = system: SK-MEL-28
# HCC 2998 = system: HCC 2998
# OVCAR-4 = system: OVCAR-4
# ACHN = system: ACHN
# SR = system: SR
# SK-MEL-2 = system: SK-MEL-2
# NCI-H23 = system: NCI-H23
# SK-OV-3 = system: SK-OV-3
# BT-549 = system: BT-549
# SK-MEL-5 = system: SK-MEL-5
# SW-620 = system: SW-620
# HL-60 = system: HL-60
# Hs-578T = system: Hs-578T
# SF-295 = system: SF-295
# UO-31 = system: UO-31
# HCT-15 = system: HCT-15
# A498 = system: A498
# UACC-257 = system: UACC-257
# TK-10 = system: TK-10
# SF-539 = system: SF-539
smiles,measurement,setting,value
NCCCn1c(Cl)nc2ccccc21,GI50,UACC-62,> 100 µM (inactive)
same,GI50,HT-29,> 100 µM (inactive)
same,GI50,NCI-H226,> 100 µM (inactive)
same,GI50,NCI-H460,> 100 µM (inactive)
same,GI50,LOX IMVI,> 100 µM (inactive)
same,GI50,MDA-N,> 100 µM (inactive)
same,GI50,KM12,> 100 µM (inactive)
same,GI50,U-251,> 100 µM (inactive)
same,GI50,OVCAR-3,> 100 µM (inactive)
same,GI50,NCI-H522,> 100 µM (inactive)
same,GI50,MDA-MB-435,> 100 µM (inactive)
same,GI50,DU-145,> 100 µM (inactive)
same,GI50,SNB-75,> 100 µM (inactive)
same,GI50,K562,> 100 µM (inactive)
same,GI50,RXF 393,> 100 µM (inactive)
same,GI50,M14,> 100 µM (inactive)
same,GI50,PC-3,> 100 µM (inactive)
same,GI50,MCF7,> 100 µM (inactive)
same,GI50,T47D,> 100 µM (inactive)
same,GI50,SNB-19,> 100 µM (inactive)
same,GI50,CCRF-CEM,> 100 µM (inactive)
same,GI50,786-0,> 100 µM (inactive)
same,GI50,SF-268,> 100 µM (inactive)
same,GI50,A549,> 100 µM (inactive)
same,GI50,MDA-MB-231,> 100 µM (inactive)
same,GI50,NCI/ADR-RES,> 100 µM (inactive)
same,GI50,Malme-3M,> 100 µM (inactive)
same,GI50,OVCAR-5,> 100 µM (inactive)
same,GI50,CAKI-1,> 100 µM (inactive)
same,GI50,IGROV-1,> 100 µM (inactive)
same,GI50,MOLT-4,> 100 µM (inactive)
same,GI50,COLO 205,> 100 µM (inactive)
same,GI50,OVCAR-8,> 100 µM (inactive)
same,GI50,RPMI-8226,> 100 µM (inactive)
same,GI50,SN12C,> 100 µM (inactive)
same,GI50,HOP-62,> 100 µM (inactive)
same,GI50,EKVX,> 100 µM (inactive)
same,GI50,HCT-116,> 100 µM (inactive)
same,GI50,SK-MEL-28,> 100 µM (inactive)
same,GI50,HCC 2998,> 100 µM (inactive)
same,GI50,OVCAR-4,> 100 µM (inactive)
same,GI50,ACHN,> 100 µM (inactive)
same,GI50,SR,> 100 µM (inactive)
same,GI50,SK-MEL-2,> 100 µM (inactive)
same,GI50,NCI-H23,> 100 µM (inactive)
same,GI50,SK-OV-3,> 100 µM (inactive)
same,GI50,BT-549,> 100 µM (inactive)
same,GI50,SK-MEL-5,> 100 µM (inactive)
same,GI50,SW-620,> 100 µM (inactive)
same,GI50,HL-60,> 100 µM (inactive)
same,GI50,Hs-578T,> 100 µM (inactive)
same,GI50,SF-295,> 100 µM (inactive)
same,GI50,UO-31,> 100 µM (inactive)
same,GI50,HCT-15,> 100 µM
same,GI50,A498,> 100 µM (inactive)
C=C1CC2C[C@H](OS(=O)(=O)c3ccc(C)cc3)C(C1)N2C (stereo partly specified),GI50,UACC-62,> 100 µM (inactive)
same,GI50,HT-29,> 100 µM (inactive)
same,GI50,NCI-H226,> 100 µM (inactive)
same,GI50,NCI-H460,> 100 µM (inactive)
same,GI50,LOX IMVI,> 100 µM (inactive)
same,GI50,MDA-N,> 100 µM (inactive)
same,GI50,KM12,> 100 µM (inactive)
same,GI50,U-251,> 100 µM (inactive)
same,GI50,OVCAR-3,> 100 µM (inactive)
same,GI50,NCI-H522,> 100 µM (inactive)
same,GI50,MDA-MB-435,> 100 µM (inactive)
same,GI50,DU-145,> 100 µM (inactive)
same,GI50,SNB-75,61.9 µM (inactive)
same,GI50,K562,> 100 µM (inactive)
same,GI50,RXF 393,> 100 µM (inactive)
same,GI50,M14,> 100 µM (inactive)
same,GI50,PC-3,> 100 µM (inactive)
same,GI50,MCF7,> 100 µM (inactive)
same,GI50,T47D,> 100 µM (inactive)
same,GI50,SNB-19,> 100 µM (inactive)
same,GI50,CCRF-CEM,> 100 µM (inactive)
same,GI50,786-0,> 100 µM (inactive)
same,GI50,SF-268,> 100 µM (inactive)
same,GI50,A549,> 100 µM (inactive)
same,GI50,MDA-MB-231,> 100 µM (inactive)
same,GI50,UACC-257,> 100 µM (inactive)
same,GI50,NCI/ADR-RES,> 100 µM (inactive)
same,GI50,Malme-3M,> 100 µM (inactive)
same,GI50,CAKI-1,> 100 µM (inactive)
same,GI50,IGROV-1,> 100 µM (inactive)
same,GI50,MOLT-4,> 100 µM (inactive)
same,GI50,COLO 205,> 100 µM (inactive)
same,GI50,OVCAR-8,> 100 µM (inactive)
same,GI50,RPMI-8226,> 100 µM (inactive)
same,GI50,SN12C,> 100 µM (inactive)
same,GI50,HOP-62,> 100 µM (inactive)
same,GI50,EKVX,> 100 µM (inactive)
same,GI50,HCT-116,> 100 µM (inactive)
same,GI50,SK-MEL-28,> 100 µM (inactive)
same,GI50,HCC 2998,> 100 µM (inactive)
same,GI50,TK-10,> 100 µM (inactive)
same,GI50,OVCAR-4,> 100 µM (inactive)
same,GI50,SR,> 100 µM (inactive)
same,GI50,SF-539,> 100 µM (inactive)
same,GI50,SK-MEL-2,> 100 µM (inactive)
same,GI50,NCI-H23,> 100 µM (inactive)
same,GI50,SK-OV-3,> 100 µM (inactive)
same,GI50,BT-549,> 100 µM (inactive)
same,GI50,SK-MEL-5,> 100 µM (inactive)
same,GI50,SW-620,> 100 µM (inactive)
same,GI50,HL-60,> 100 µM (inactive)
same,GI50,Hs-578T,> 100 µM (inactive)
same,GI50,SF-295,> 100 µM (inactive)
same,GI50,UO-31,> 100 µM (inactive)
same,GI50,HCT-15,> 100 µM
NC(=O)c1nnc2ccc(F)cc2c1N,GI50,UACC-62,> 100 µM (inactive)
same,GI50,HT-29,> 100 µM (inactive)
same,GI50,NCI-H226,7.57 µM (inactive)
same,GI50,NCI-H460,> 100 µM (inactive)
same,GI50,LOX IMVI,69 µM (inactive)
same,GI50,MDA-N,> 100 µM (inactive)
same,GI50,KM12,> 100 µM (inactive)
same,GI50,U-251,> 100 µM (inactive)
same,GI50,OVCAR-3,> 100 µM (inactive)
same,GI50,NCI-H522,94.6 µM (inactive)
same,GI50,MDA-MB-435,> 100 µM (inactive)
same,GI50,DU-145,> 100 µM (inactive)
same,GI50,SNB-75,> 100 µM (inactive)
same,GI50,K562,> 100 µM (inactive)
same,GI50,M14,> 100 µM (inactive)
same,GI50,PC-3,> 100 µM (inactive)
same,GI50,MCF7,> 100 µM (inactive)
same,GI50,T47D,> 100 µM (inactive)
same,GI50,SNB-19,> 100 µM (inactive)
same,GI50,CCRF-CEM,> 100 µM (inactive)
same,GI50,786-0,> 100 µM (inactive)
same,GI50,SF-268,> 100 µM (inactive)
same,GI50,A549,> 100 µM (inactive)
same,GI50,MDA-MB-231,> 100 µM (inactive)
same,GI50,UACC-257,> 100 µM (inactive)
same,GI50,NCI/ADR-RES,> 100 µM (inactive)
same,GI50,Malme-3M,> 100 µM (inactive)
same,GI50,OVCAR-5,70 µM (inactive)
same,GI50,CAKI-1,> 100 µM (inactive)
same,GI50,IGROV-1,> 100 µM (inactive)
same,GI50,MOLT-4,> 100 µM (inactive)
same,GI50,COLO 205,> 100 µM (inactive)
same,GI50,OVCAR-8,> 100 µM (inactive)
same,GI50,RPMI-8226,> 100 µM (inactive)
same,GI50,SN12C,> 100 µM (inactive)
same,GI50,HOP-62,> 100 µM (inactive)
same,GI50,EKVX,> 100 µM (inactive)
same,GI50,HCT-116,> 100 µM (inactive)
same,GI50,HCC 2998,> 100 µM (inactive)
same,GI50,TK-10,68.7 µM (inactive)
same,GI50,OVCAR-4,> 100 µM (inactive)
same,GI50,ACHN,88.9 µM (inactive)
same,GI50,SR,> 100 µM (inactive)
same,GI50,SF-539,> 100 µM (inactive)
same,GI50,SK-MEL-2,> 100 µM (inactive)
same,GI50,NCI-H23,> 100 µM (inactive)
same,GI50,SK-OV-3,87.5 µM (inactive)
same,GI50,BT-549,68.4 µM (inactive)
same,GI50,SK-MEL-5,> 100 µM (inactive)
same,GI50,SW-620,> 100 µM (inactive)
same,GI50,HL-60,> 100 µM (inactive)
same,GI50,Hs-578T,> 100 µM (inactive)
same,GI50,SF-295,> 100 µM (inactive)
same,GI50,UO-31,40.3 µM (inactive)
same,GI50,HCT-15,> 100 µM
same,GI50,A498,> 100 µM (inactive)
